Laboratory results taken from patent publication US10849966B2, “Methods for treating netosis and neutrophil activation” (TRUSTEES OF BOSTON UNIVERSITY, priority 2017, dated 2020).
Entries after “also recorded” stand apart in the source; their conditions may differ.

Legend:
[1] = PK study in Panc1 xenograft mice; type: in vivo; conditions: 15 mg/kg i.v. (n=3)
[2] = test system: Panc1-cancer stem cell pancreatic carcinomatosis xenograft; test: CSC-derived pancreatic carcinomatosis xenograft tumor model in nude rats, comorbidities; type: in vivo, rat; conditions: treatment start 3 weeks after Panc1-CSC injection; vs untreated
Excerpt: FIG. 39 depicts a representative image of control untreated tumor rat (left panel) and ABTM-468 treated rat (right panel). Control rat was euthanized due to distress, treated rat was euthanized to obtain age- and tumor-duration-matched tumors. The xenograft tumor model was developed from Panc1-cancer stem cells injected into the peritoneal space 3 weeks prior to the start of treatment. T, tumors; GB, gall bladder.

[3] = test system: chronic kidney disease in Dahl S female rats; test: CKD in Dahl S female rats fed a HSD; type: in vivo, rat; conditions: for albuminuria, effect in words / urinary albumin creatinine ratio (UACR), effect in words: 3 mg/kg iv × 1 dose, after 7 days, moderate-severe CKD; for Albuminuria / Creatinine Clearance / UACR (urinary albumin/urinary creatinine ratio) / Urinary Exosome Excretion: Mean ± SD
Excerpt: Legend: hu-6g8, humanized anti-DEspR monoclonal antibody, HSD, high salt diet induced via 2% NaCl water to drink ad lib; CKD, Dahl salt-sensitive hypertensive rats with chronic kidney disease with moderate nephrosclerosis (Raij scores˜300) induced with a high salt diet (2% NaCl); control, non-treated age- and sex-matched CKD rats.

[4] = test system: chronic kidney disease in Tg25+ male rats; test: CKD in Tg25+ male rats fed a HSD; type: in vivo, rat; conditions: hu-6g8 3 mg/kg IV at D0, D7, D14 and D21, Mean ± SD

Question: Which half-life [1] does the source give for “hu-6g8: fully humanized anti-DEspR mAb with a S228P hinge-stabilized IgG4/kappa FC region” here?
Answer: Its half-life is 40.8 h.

Question: What about the “cancer comorbidities (gut ischemia, ascites, gut dysfunction)” value [2] of the same substance?
Answer: The value was “reduced gut ischemia, serous or hemorrhagic ascites, distended gut, and ischemic-hemorrhagic gut (black gut) and gut dysfunction”.

Question: And the “albuminuria, effect in words” value [3]?
Answer: Its value is “decreased”.

Question: What about the “urinary albumin creatinine ratio (UACR), effect in words” value [3] of the same substance?
Answer: Its value is “decreased”.

Question: What about the “albuminuria, effect in words” value ([3]; listed as ABTM-468) of the same substance?
Answer: The value was “decreased; also recorded: reduced”.

Question: And the “urinary albumin creatinine ratio (UACR), effect in words” value ([3]; listed as ABTM-468)?
Answer: The value was “decreased; also recorded: reduced”.

Question: And the Albuminuria ([3]; D7 (day of dosing, baseline))?
Answer: The Albuminuria was 404 ± 190 mg/kg/day.

Question: What about the “Creatinine Clearance” value ([3]; D7 (day of dosing, baseline)) of the same substance?
Answer: The value was 104 ± 35 µL/min.

Question: What about the “UACR (urinary albumin/urinary creatinine ratio)” value ([3]; D7 (day of dosing, baseline)) of the same substance?
Answer: Its value is 25450 ± 8980.

Question: And the “Urinary Exosome Excretion” value ([3]; D7 (day of dosing, baseline))?
Answer: The value was 663 ± 224 mg/kg/day.

Question: What about the Albuminuria ([3]; D14, hu-6g8 3 mg/kg IV at D7) of the same substance?
Answer: The Albuminuria was 92.5 ± 95 mg/kg/day.

Question: And the “Creatinine Clearance” value ([3]; D14, hu-6g8 3 mg/kg IV at D7)?
Answer: Its value is 168 ± 118 µL/min.

Question: And the “UACR (urinary albumin/urinary creatinine ratio)” value ([3]; D14, hu-6g8 3 mg/kg IV at D7)?
Answer: The value was 2285 ± 2337.

Question: And the “Urinary Exosome Excretion” value ([3]; D14, hu-6g8 3 mg/kg IV at D7)?
Answer: The value was 876 ± 348 mg/kg/day.

Question: What about the Albuminuria ([4]; D14) of the same substance?
Answer: The Albuminuria was 217 ± 87 mg/kg/day.

Question: What about the “Creatinine Clearance” value ([4]; D14) of the same substance?
Answer: The value was 279 ± 82 µL/min.

Question: What about the “UACR (urinary albumin/urinary creatinine ratio)” value ([4]; D14) of the same substance?
Answer: The value was 8309 ± 3731.

Question: And the “Urinary Exosome Excretion” value ([4]; D14)?
Answer: The value was 771 ± 220 mg/kg/day.

Question: And the Albuminuria ([4]; D28)?
Answer: The Albuminuria was 164.8 ± 86 mg/kg/day.

Question: And the “Creatinine Clearance” value ([4]; D28)?
Answer: The value was 268 ± 30 µL/min.

Question: What about the “UACR (urinary albumin/urinary creatinine ratio)” value ([4]; D28) of the same substance?
Answer: The value was 5567 ± 2210.

Question: What about the “Urinary Exosome Excretion” value ([4]; D28) of the same substance?
Answer: The value was 651 ± 191 mg/kg/day.
